Measurements reported in publication PMC8847695 (Frontiers in Chemistry, 2022).

Key:
Assay type in all cases: binding
Conditions in all cases: 1 = hit, 0 = no hit
[1] = molecular target: T1, IDO1 (1-435) (Homo sapiens, UniProt P14902); assay: STD-NMR fragment screening, IDO1
T1 construct: His-tag of pET15b with TEV site (thrombin site replaced) (cleaved yes); made in house; host or cells: E. coli Rosetta 2 (DE3) pLysS
Experimental: (§1) All fragments were stored at −20°C as solids in argon flushed glass bottles. For NMR screening, fragments were weighed and dissolved in DMSO-d6 to a stock concentration of 300 mM. Mother plates were prepared with a 100 mM concentration. From these plates, daughter plates were prepared with the fragments mixed in the plates to a concentration of 50 mM for each fragment. Daughter plates were opened a maximum of eight times. The plates were argon flushed and sealed with a HT121TS (HTA) and Foil Heat Seal (Biozym).
(§2) For long time measurements, like the protein ^1H NMR spectrum, the buffer exchange was performed twice to reduce residual buffer peaks. All experiments were performed on a Bruker Avance III HDX 700 instrument, equipped with a 5 mm Prodigy TCI cryo-probehead. For every protein, a standard ^1H NMR experiment with 1 k scans and water suppression through presaturation was performed. […] The on-resonance frequency, which was determined from the ^1H NMR spectra of the protein, was between 0.5 and 0.6 ppm; 40 ppm was used as the off-resonance frequency. For an interleaved acquisition of the on- and off-resonance, a pseudo-2D scheme was applied. The saturation was done by Gaussian pulses with a length of 50 ms and 60 dB of attenuation, with an interpulse delay of 1 ms leading to an excitation bandwidth of about 42 Hz. The screening was done with 16 scans of on- and off-resonance scans each, with a 3 s saturation time. The samples contained final concentrations of 20 µM protein, 10% (^V/V) DMSO-d6, and 1 mM of each of the two fragments. A ^1H-NMR experiment was performed for each compound to act as a reference spectrum in the STD experiments. All NMR experiments were carried out at 25°C.
(§3) Fifteen of these compounds contain the same halogen twice. No compound bears mixtures of different halogen atoms. Four proteins (AAK1, CAMK1G, IDO1, and DOT1L) were screened against this HEFLib using STD-NMR. A fragment was considered a hit if the peak intensity in the difference spectrum was three times higher than the local background noise. […] Chemical compatibility and peak complementarity were assured for these mixtures. Samples containing more than two fragments were avoided to minimize the possible target competition and to decrease the risk of fragment interactions. […] The ^1H reference NMR spectrum of the mixture is shown in red for comparison. […] As fragment mixtures can lead to competitive effects between their fragments, it is not advised to use the quantification of peak mixtures for hit ranking.

[2] = molecular target: T2, DOT1L (1-416) (Homo sapiens, UniProt Q8TEK3); assay: STD-NMR fragment screening, DOT1L
T2 construct: made in house; host or cells: E. coli BL21 (DE3) pLysS
T2 sequence (Q8TEK3 1-416): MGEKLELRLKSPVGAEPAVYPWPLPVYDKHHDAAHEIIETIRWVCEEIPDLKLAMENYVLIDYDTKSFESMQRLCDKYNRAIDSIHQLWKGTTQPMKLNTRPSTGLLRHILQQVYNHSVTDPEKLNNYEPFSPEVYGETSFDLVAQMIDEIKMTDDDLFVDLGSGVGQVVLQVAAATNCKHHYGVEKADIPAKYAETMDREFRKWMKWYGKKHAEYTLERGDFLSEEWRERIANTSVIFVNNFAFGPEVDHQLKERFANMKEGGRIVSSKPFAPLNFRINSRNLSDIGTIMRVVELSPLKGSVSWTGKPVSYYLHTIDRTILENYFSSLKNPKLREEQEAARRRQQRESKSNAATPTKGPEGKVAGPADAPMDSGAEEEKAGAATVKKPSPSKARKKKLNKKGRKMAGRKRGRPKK
Experimental: as §1, §2, §3

[3] = molecular target: AAK1 (121-471) (Homo sapiens, UniProt Q2M2I8); assay: STD-NMR fragment screening, AAK1
Sequence of AAK1 (121-471) (Q2M2I8 46-315 limits assumed): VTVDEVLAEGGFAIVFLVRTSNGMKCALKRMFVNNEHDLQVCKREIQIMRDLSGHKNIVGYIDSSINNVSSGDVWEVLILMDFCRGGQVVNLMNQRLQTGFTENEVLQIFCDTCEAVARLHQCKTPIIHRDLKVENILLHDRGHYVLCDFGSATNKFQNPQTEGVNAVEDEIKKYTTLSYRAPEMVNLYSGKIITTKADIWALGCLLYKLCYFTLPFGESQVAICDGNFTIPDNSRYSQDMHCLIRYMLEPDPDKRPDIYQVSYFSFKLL
Experimental: as §1, §2, §3

[4] = molecular target: T3, CAMK1G (1-320) (Homo sapiens, UniProt Q96NX5); assay: STD-NMR fragment screening, CAMK1G
T3 construct: made in house; host or cells: E. coli BL21 (DE3) pLysS
T3 sequence (Q96NX5 1-320): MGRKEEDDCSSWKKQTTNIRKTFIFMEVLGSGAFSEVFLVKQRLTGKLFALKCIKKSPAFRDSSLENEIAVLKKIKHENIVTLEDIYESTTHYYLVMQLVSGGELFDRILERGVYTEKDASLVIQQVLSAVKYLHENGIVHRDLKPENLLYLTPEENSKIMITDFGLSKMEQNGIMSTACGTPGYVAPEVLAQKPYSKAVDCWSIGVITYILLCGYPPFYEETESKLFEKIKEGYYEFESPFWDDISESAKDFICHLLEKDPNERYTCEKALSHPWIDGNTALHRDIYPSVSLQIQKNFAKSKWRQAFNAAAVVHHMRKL
Experimental: as §1, §2, §3

T1 sequence (P14902 whole entry, the tested form may be a part): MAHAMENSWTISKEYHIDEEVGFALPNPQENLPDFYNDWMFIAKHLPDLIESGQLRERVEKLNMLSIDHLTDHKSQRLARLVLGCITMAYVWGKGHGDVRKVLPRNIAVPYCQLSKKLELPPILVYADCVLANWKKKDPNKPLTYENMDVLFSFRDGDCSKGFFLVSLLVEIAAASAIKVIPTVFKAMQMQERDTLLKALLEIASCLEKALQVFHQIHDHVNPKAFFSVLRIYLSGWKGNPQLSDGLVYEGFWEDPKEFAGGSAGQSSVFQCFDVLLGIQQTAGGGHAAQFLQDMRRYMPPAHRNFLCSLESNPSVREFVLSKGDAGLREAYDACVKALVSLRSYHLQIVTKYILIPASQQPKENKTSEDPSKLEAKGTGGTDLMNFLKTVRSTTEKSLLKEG

| IDO1 (STD-NMR hit flag) [1] | DOT1L (STD-NMR hit flag) [2] | AAK1 (STD-NMR hit flag) [3] | CAMK1G (STD-NMR hit flag) [4] | Compound |
| --- | --- | --- | --- | --- |
| 0 | 0 | 0 | 0 | O=C(O)c1ncc(Cl)cc1Cl [Fragment B02297418] |
| 0 | 0 | 0 | 0 | Nc1nn(CC(=O)O)cc1Br [Fragment B02291156] |
| 1 | 0 | 0 | 0 | O=c1cc(O)c(Cl)c[nH]1 [Fragment B02297427] |
| 1 | 0 | 1 | 1 | CC(=O)c1c[nH]c2ncnc(Cl)c12 [Fragment B02290661] |
| 0 | 0 | 0 | 0 | Oc1ccc(Cl)cc1/C=C/C12CN3CN(CN(C3)C1)C2 [Fragment B02291153] |
| 0 | 0 | 0 | 0 | Cn1ncc(I)c1C(=O)NN [Fragment B02297766] |
| 1 | 0 | 0 | 0 | Cn1ncc(Br)c1C(=O)O [Fragment B02290116] |
| 0 | 0 | 0 | 0 | Clc1cnc(Cl)nc1 [Fragment B02291267] |
| 0 | 0 | 0 | 0 | O=C(O)c1cc(Cl)c[nH]1 [Fragment B02291221] |
| 0 | 0 | 0 | 0 | Cn1cc(Br)c(N)n1 [Fragment B02297415] |
| 0 | 0 | 1 | 1 | Fc1cnccc1I [Fragment B02290473] |
| 0 | 0 | 0 | 0 | Brc1nnc2n1CCNC2 [Fragment B02290462] |
| 0 | 0 | 0 | 0 | NCc1cc(Cl)c2c(c1)OCCCO2 [Fragment B02291242] |
| 0 | 0 | 0 | 0 | Clc1cnc2nn[nH]c2c1 [Fragment B02290468] |
| 0 | 0 | 0 | 0 | Oc1coc(O)c1Br [Fragment B02291100] |
| 1 | 1 | 1 | 0 | Cc1[nH]c(=O)[nH]c(=O)c1I [Fragment B02297420] |
| 0 | 0 | 0 | 0 | O=C(O)C(=O)Nc1ccc(Cl)cn1 [Fragment B02290408] |
| 0 | 0 | 0 | 0 | Cc1ccc(C(=O)O)c(Cl)n1 [Fragment B02297428] |

| IDO1 (STD-NMR hit flag) [1] | DOT1L (STD-NMR hit flag) [2] | AAK1 (STD-NMR hit flag) [3] | CAMK1G (STD-NMR hit flag) [4] | Compound |
| --- | --- | --- | --- | --- |
| 0 | 0 | 0 | 1 | Nc1ncccc1I [Fragment B02289600] |
| 0 | 0 | 0 | 0 | Brc1cnc2[nH]nnc2c1 [Fragment B02290482] |
| 0 | 0 | 1 | 0 | Nc1ccc2[nH]cnc2c1Br [Fragment B02297409] |
| 0 | 0 | 0 | 0 | O=C(O)c1cccnc1Cl [Fragment B02291258] |
| 1 | 0 | 1 | 1 | Clc1ncnc2[nH]ccc12 [Fragment B02291254] |
| 0 | 0 | 0 | 0 | O=C(O)c1nccc(Cl)c1Cl [Fragment B02290659] |
| 0 | 0 | 0 | 0 | CNc1cc(Cl)c2c(c1)OCO2 [Fragment B02294481] |
| 0 | 0 | 0 | 0 | O=C(O)c1cc(Cl)nnc1Cl [Fragment B02290470] |
| 0 | 0 | 1 | 0 | Cn1nc(Br)c(C(=O)NCC(=O)O)c1N [Fragment B02291252] |
| 0 | 1 | 1 | 0 | O=C(O)c1cncc(Br)c1 [Fragment B02291261] |
| 0 | 0 | 0 | 0 | O=C(O)c1c(I)ccnc1F [Fragment B02290658] |
| 0 | 0 | 0 | 0 | O=C(O)c1csc(Cl)n1 [Fragment B02291228] |
| 0 | 0 | 0 | 0 | NC(=O)c1cc2c(nc1Cl)CCC2 [Fragment B02291222] |
| 0 | 0 | 1 | 0 | N#Cc1ccc(O)c(Cl)c1 [Fragment B02291257] |
| 0 | 0 | 0 | 0 | COCn1nc(Br)[nH]c1=O [Fragment B02290404] |
| 0 | 0 | 1 | 0 | Brc1cnc(C2OCCO2)s1 [Fragment B02290407] |
| 0 | 0 | 0 | 0 | O=C(O)c1ccc(Cl)c(O)c1 [Fragment B02289615] |

| Compound | IDO1 (STD-NMR hit flag) [1] | DOT1L (STD-NMR hit flag) [2] | AAK1 (STD-NMR hit flag) [3] | CAMK1G (STD-NMR hit flag) [4] |
| --- | --- | --- | --- | --- |
| CN1CCN(c2ccc(Br)cn2)CC1 [Fragment B02297404] | 0 | 0 | 0 | 0 |
| O=c1[nH]cc(Br)c(=O)[nH]1 [Fragment B02291248] | 0 | 0 | 1 | 1 |
